In one test the test system is MDA-MB-231 cells. The test can be described thus: Test A cell proliferation assay (FFA/linolenic acid stimulated, S-phase by flow cytometry). The conditions noted are these: linolenic acid 100 μM, 24 hours; Compounds X and Y 10 μM, Compound Z 40 μM; FIGS. 1c, 2A-2C. In kind it is cell-based, human. As for the experimental part:
Dulbecco's modified Eagle's medium (D-MEM)+1000 mg/L Glucose+GlutaMAX™1+Pyruvate (Gibco #21885-025)
PEST (100 U/ml penicillin, 100 ug/ml streptomycin, Gibco 15140-122) CyStain PI absolute T Kit (Partec #05-5023) Linolenic acid 99%, L2376 from Sigma Aldrich Dimethyl sulfoxide (DMSO)
Cytomics™ FC500 Flow Cytometer with CXP software (Beckman Coulter) MDA-MB-231 cells
MDA-MB-231 cells were cultured in the propagation media D-MEM+1000 mg/L Glucose+GlutaMAX™1+Pyruvate supplemented with 10% V/V Foetal Bovine Serum and PEST (100 U/ml penicillin, 100 μg/mL streptomycin). Cells were seeded in 6 well plates to a density of 300 000 cells/well in propagation media. After 24 hours, media was replaced with serum free D-MEM media.
Linolenic acid was diluted in DMSO to a concentration of 100 mM and added to the culture media to a final concentration of 100 μM.
Compounds were as dissolved in DMSO to a concentrations of 10 mM (Compounds of Examples 95 and 6 (Compound X and Compound Y, respectively)) and 40 mM (Compound of Example 4 (Compound Z)) and added to the culture media to a final concentration of 10 μM (X and Y) and 40 μM (Z) respectively.
After 24 hours in serum free media DMEM, linolenic acid (to a final concentration of […]) and compounds to be screened for activity were added to a final concentration of 10 μM (Compounds X and Y) and 40 μM (Compound Z) respectively. Final DMSO concentration was kept at 0.2% in all wells. After 24 hours of stimulation, cells were harvested and propidium iodine stained using a CyStain PI absolute T Kit according to manufacturer's recommendations. Cells were subsequently analyzed using a Cytomics™ FC500 Flow Cytometer with CXP software (Beckman Coulter) for cell cycle distribution. Cells were incubated with or without linolenic acid (LA) and the Compounds X, Y and Z for 24 hours at indicated concentrations. Cells in S-phase from untreated sample were set to 100% in each experiment.
For orientation: A flow cytometer gives signals particle by particle.

Test [1] relates to MDA-MB-231 human breast cancer cells. The test can be described thus: Test B in vivo mouse model, tumor histology. Also noted: species or system Athymic BALB/cA nude mice. The settings on record: 1 mg/kg intraperitoneal once daily for 9 days; for cell density in the interior of the tumor section / cells displaying macrophage/monocyte morphology in the interior of the tumor section: hematoxylin stained cryosections, versus vehicle. As for the experimental part: week old Athymic BALB/cA nude mice were delivered from Taconic (Denmark) and kept under barrier conditions for 1 week acclimatisation. At 6 weeks, 17 mice were injected subcutaneously on the flank with 1.8×10^6 MDA-MB-231 human breast cancer cells (LGC Promochem-ATCC) in a 50/50 v/v solution of phosphate buffered saline (PBS) (Gibco 10010-015, Invitrogen) Matrigel HC (BD Biosciences).
2 mice were sacrificed and the tumors dissected and examined. 2 groups of 7 mice each were treated once daily by intraperitoneal injections of 1 mg/kg bodyweight of the compound of Example 6 (Compound Y) in PBS/1% v/v dimethylsufoxide or vehicle control respectively for 9 days. The mice were sacrificed by cervical dislocation and tumors were dissected.
The tumor tissue were fixated overnight in PBS (containing 4% w/v paraformaldehyde (Scharlau PA0095, Sharlau Chemie SA, Spain) at +4° C. The tumor tissue were then cryopreserved by 24 hour incubation in PBS containing 30% w/v sucrose (BDH #102745C (www.vwr.com) at +4° C. and embedded in Tissue-Tek embedding media (Sakura Finetek Europa BV, Netherlands). 10 μm cryosections were generated an stained with Mayers Hematoxylin (Dako) for 5 min and destained for 3×10 minutes in tap water. Slides were mounted using Dako faramount aqueous mounting medium and examined using a Nikon Eclipse TS 100 microscope documented using a Nikon coolpix 4500.
The tumors from mice treated with test compound and vehicle were analyzed for morphology by microscopic examination of hematoxylin stained cryosections.

The record followed here is patent publication US20090156644A1, “Use of thiazole derivatives and analogues in the treatment of cancer” (priority 2005, published 2009).

With `O=C1NC(=Nc2ccccn2)SC1Cc1ccc(F)cc1` (centres unmarked) [Compound X, 5-(4-Fluorobenzyl)-2-(pyridin-2-ylimino)thiazolidin-4-one], the “antagonism of free fatty acid stimulated cell proliferation” value in the test on MDA-MB-231 cells is “able to antagonize free fatty acid stimulated cell proliferation”.
For the molecule `O=C1NC(=Nc2ccc(Cl)cc2)SC1Cc1cccc(C(F)(F)F)c1` (centres unmarked) [Compound Y, 5-(3-(Trifluoromethyl)benzyl)-2-(4-chlorophenylimino)thiazolidin-4-one], the “antagonism of free fatty acid stimulated cell proliferation” value with MDA-MB-231 cells was “able to antagonize free fatty acid stimulated cell proliferation”. In test [1] (hematoxylin stained cryosection, 20× magnification), the “cells displaying fibroblast morphology in the interior of the tumor section” value is “lack of cells displaying fibroblast morphology”. In test [1], the “cell density in the interior of the tumor section” value is listed as “low cell density” and the “cells displaying macrophage/monocyte morphology in the interior of the tumor section” value is “accumulation of cells displaying morphology indicative of macrophage/monocyte”. For the same molecule, in test [1] (listed as test compound), the “cell density in the interior of the tumor section” value is listed as “markedly reduced” and the “cells displaying macrophage/monocyte morphology in the interior of the tumor section” value is given as “a frequent finding”.
In the case of `Cc1ccc(N=C2NC(=O)C(Cc3cccc(C(F)(F)F)c3)S2)cc1` (centres unmarked) [Compound Z, 5-(3-(Trifluoromethyl)benzyl)-2-(p-tolylimino)thiazolidin-4-one], the “antagonism of free fatty acid stimulated cell proliferation” value with MDA-MB-231 cells is on record as “able to antagonize free fatty acid stimulated cell proliferation”.
